ChEMBL document CHEMBL3872257, “Multitarget drug design strategy against Alzheimer's disease: Homoisoflavonoid Mannich base derivatives serve as acetylcholinesterase and monoamine oxidase B dual inhibitors with multifunctional properties” (Bioorg Med Chem, 2017)

Molecular target: T1, Amine oxidase [flavin-containing] B (Homo sapiens, UniProt P27338)
T1 sequence (P27338 whole entry): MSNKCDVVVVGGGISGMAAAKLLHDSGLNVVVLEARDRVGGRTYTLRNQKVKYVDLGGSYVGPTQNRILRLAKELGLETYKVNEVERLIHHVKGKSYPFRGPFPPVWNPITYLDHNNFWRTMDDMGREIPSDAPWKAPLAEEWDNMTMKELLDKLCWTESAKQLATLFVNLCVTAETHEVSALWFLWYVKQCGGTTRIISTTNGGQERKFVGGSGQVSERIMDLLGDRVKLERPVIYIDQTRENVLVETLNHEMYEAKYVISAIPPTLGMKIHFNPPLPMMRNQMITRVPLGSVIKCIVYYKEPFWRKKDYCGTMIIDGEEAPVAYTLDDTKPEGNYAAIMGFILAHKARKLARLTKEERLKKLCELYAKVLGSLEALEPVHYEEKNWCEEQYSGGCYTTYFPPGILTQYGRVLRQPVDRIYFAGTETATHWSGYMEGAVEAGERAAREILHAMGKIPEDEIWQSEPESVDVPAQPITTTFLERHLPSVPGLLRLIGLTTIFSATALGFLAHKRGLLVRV
Conditions: not given

Structure (SMILES) | IC50
COc1cc2c(cc1OC)C(=O)/C(=C/c1ccc(CN3CCOCC3)c(O)c1)CO2 | 1010 nM
CCN(CC)Cc1ccc(/C=C2\COc3cc(OC)c(OC)cc3C2=O)cc1O | 2430 nM
CCN(Cc1ccc(/C=C2\COc3cc(OC)c(OC)cc3C2=O)cc1O)Cc1ccccc1OC | 1500 nM
COc1cc2c(cc1OC)C(=O)/C(=C/c1ccc(CN(C)C)c(O)c1)CO2 | 882 nM

Molecular target: Acetylcholinesterase (Electrophorus electricus, UniProt O42275)
Assay: Inhibition of Electrophorus electricus AChE using acetylthiocholine iodide as substrate measured after 15 mins by Ellman's method
Conditions: not given

Chain of Acetylcholinesterase (O42275 whole entry): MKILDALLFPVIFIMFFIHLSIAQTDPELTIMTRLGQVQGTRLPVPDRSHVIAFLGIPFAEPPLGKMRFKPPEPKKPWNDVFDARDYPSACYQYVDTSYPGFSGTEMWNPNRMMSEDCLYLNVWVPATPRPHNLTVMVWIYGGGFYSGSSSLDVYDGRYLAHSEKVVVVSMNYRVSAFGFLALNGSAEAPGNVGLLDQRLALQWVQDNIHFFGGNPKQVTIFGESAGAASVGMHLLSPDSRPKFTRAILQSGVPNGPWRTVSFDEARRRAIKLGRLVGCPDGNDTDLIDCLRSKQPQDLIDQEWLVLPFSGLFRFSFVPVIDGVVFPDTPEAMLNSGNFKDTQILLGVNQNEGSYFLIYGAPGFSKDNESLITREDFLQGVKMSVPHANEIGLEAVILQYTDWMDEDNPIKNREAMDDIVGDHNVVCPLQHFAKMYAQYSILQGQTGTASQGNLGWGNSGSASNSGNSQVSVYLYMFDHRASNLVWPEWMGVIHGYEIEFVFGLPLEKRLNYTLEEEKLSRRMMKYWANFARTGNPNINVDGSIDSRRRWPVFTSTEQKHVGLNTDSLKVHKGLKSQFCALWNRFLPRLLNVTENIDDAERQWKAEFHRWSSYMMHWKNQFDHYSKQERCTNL

Structure (SMILES) | IC50
COc1ccccc1CN(C)Cc1c(O)cccc1/C=C1\COc2cc(OC)c(OC)cc2C1=O | 33.3 µM
COc1cc2c(cc1OC)C(=O)/C(=C/c1cccc(O)c1CN1CCOCC1)CO2 | 85.9 µM
CCN(CC)Cc1c(O)cccc1/C=C1\COc2cc(OC)c(OC)cc2C1=O | 37.4 µM
CCN(Cc1ccccc1)Cc1c(O)cccc1/C=C1\COc2cc(OC)c(OC)cc2C1=O | 172 µM
COc1cc2c(cc1OC)C(=O)/C(=C/c1cccc(O)c1CN1CCN(C)CC1)CO2 | 84.1 µM
COc1cc2c(cc1OC)C(=O)/C(=C/c1ccc(CN3CCOCC3)c(O)c1)CO2 | 1.29 µM
CCN(CC)Cc1ccc(/C=C2\COc3cc(OC)c(OC)cc3C2=O)cc1O | 0.0068 µM
CCN(Cc1ccc(/C=C2\COc3cc(OC)c(OC)cc3C2=O)cc1O)Cc1ccccc1OC | 15.7 µM
COc1cc2c(cc1OC)C(=O)/C(=C/c1ccc(CN(C)C)c(O)c1)CO2 | 0.536 µM

Tested on: not listed separately
Assay: Antioxidant activity assessed as trolox equivalent of […]-induced radical scavenging activity preincubated for 15 mins followed by AAPH addition measured every minute for 120 mins by ORAC fluorescein assay
Format: functional
Conditions: not given

Structure (SMILES) | Activity
COc1ccccc1CN(C)Cc1c(O)cccc1/C=C1\COc2cc(OC)c(OC)cc2C1=O | 1.69 equiv
COc1cc2c(cc1OC)C(=O)/C(=C/c1cccc(O)c1CN1CCOCC1)CO2 | 1.52 equiv
CCN(CC)Cc1c(O)cccc1/C=C1\COc2cc(OC)c(OC)cc2C1=O | 2.05 equiv
CCN(Cc1ccccc1)Cc1c(O)cccc1/C=C1\COc2cc(OC)c(OC)cc2C1=O | 1.34 equiv
COc1cc2c(cc1OC)C(=O)/C(=C/c1cccc(O)c1CN1CCN(C)CC1)CO2 | 1.83 equiv
COc1cc2c(cc1OC)C(=O)/C(=C/c1ccc(CN3CCOCC3)c(O)c1)CO2 | 1.35 equiv
CCN(CC)Cc1ccc(/C=C2\COc3cc(OC)c(OC)cc3C2=O)cc1O | 1.97 equiv
CCN(Cc1ccc(/C=C2\COc3cc(OC)c(OC)cc3C2=O)cc1O)Cc1ccccc1OC | 1.8 equiv
COc1cc2c(cc1OC)C(=O)/C(=C/c1ccc(CN(C)C)c(O)c1)CO2 | 1.71 equiv

Molecular target: Amyloid-beta precursor protein (Homo sapiens) (UniProt P05067)
Assay: Inhibition of self-mediated aggregation of amyloid beta (1 to 42 residues) (unknown origin) at 25 uM incubated for 24 hrs by Thioflavin T fluorescence assay relative to control
Conditions: not given

Chain of Amyloid-beta precursor protein (Homo sapiens) (P05067 whole entry, the tested form may be a part): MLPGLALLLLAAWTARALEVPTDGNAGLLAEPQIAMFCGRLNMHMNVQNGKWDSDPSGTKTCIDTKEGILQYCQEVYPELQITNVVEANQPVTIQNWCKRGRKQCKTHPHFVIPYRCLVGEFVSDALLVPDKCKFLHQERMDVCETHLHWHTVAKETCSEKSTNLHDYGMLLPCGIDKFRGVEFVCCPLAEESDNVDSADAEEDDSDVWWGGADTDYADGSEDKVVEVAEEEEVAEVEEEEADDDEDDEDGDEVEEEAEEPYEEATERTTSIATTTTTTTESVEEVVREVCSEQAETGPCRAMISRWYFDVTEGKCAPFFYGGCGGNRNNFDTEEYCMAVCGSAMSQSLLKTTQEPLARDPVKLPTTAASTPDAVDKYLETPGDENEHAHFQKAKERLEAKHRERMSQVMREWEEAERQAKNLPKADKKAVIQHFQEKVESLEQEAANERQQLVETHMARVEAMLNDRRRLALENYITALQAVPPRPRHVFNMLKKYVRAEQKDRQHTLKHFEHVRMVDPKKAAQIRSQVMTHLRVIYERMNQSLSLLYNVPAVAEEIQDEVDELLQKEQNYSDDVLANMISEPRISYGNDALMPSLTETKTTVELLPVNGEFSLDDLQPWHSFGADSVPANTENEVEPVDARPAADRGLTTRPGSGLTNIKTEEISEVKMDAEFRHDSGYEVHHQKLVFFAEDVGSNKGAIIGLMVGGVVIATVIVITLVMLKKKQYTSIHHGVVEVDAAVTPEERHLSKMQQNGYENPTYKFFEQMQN

Structure (SMILES) | inhibition
COc1ccccc1CN(C)Cc1c(O)cccc1/C=C1\COc2cc(OC)c(OC)cc2C1=O | 35.6%
COc1cc2c(cc1OC)C(=O)/C(=C/c1cccc(O)c1CN1CCOCC1)CO2 | 7.8%
CCN(CC)Cc1c(O)cccc1/C=C1\COc2cc(OC)c(OC)cc2C1=O | 20.1%
CCN(Cc1ccccc1)Cc1c(O)cccc1/C=C1\COc2cc(OC)c(OC)cc2C1=O | 8%
COc1cc2c(cc1OC)C(=O)/C(=C/c1cccc(O)c1CN1CCN(C)CC1)CO2 | 26.8%
COc1cc2c(cc1OC)C(=O)/C(=C/c1ccc(CN3CCOCC3)c(O)c1)CO2 | 28.3%
CCN(CC)Cc1ccc(/C=C2\COc3cc(OC)c(OC)cc3C2=O)cc1O | 21.2%
CCN(Cc1ccc(/C=C2\COc3cc(OC)c(OC)cc3C2=O)cc1O)Cc1ccccc1OC | 44%
COc1cc2c(cc1OC)C(=O)/C(=C/c1ccc(CN(C)C)c(O)c1)CO2 | 35.2%

Species on record: Homo sapiens
Assay: Selectivity index, ratio of IC50 for human recombinant MAO-A to IC50 for human recombinant MAO-B
Conditions: not given

Structure (SMILES) | Ratio IC50
COc1cc2c(cc1OC)C(=O)/C(=C/c1ccc(CN3CCOCC3)c(O)c1)CO2 | > 19.8
CCN(CC)Cc1ccc(/C=C2\COc3cc(OC)c(OC)cc3C2=O)cc1O | > 8.2
CCN(Cc1ccc(/C=C2\COc3cc(OC)c(OC)cc3C2=O)cc1O)Cc1ccccc1OC | > 13.3
COc1cc2c(cc1OC)C(=O)/C(=C/c1ccc(CN(C)C)c(O)c1)CO2 | > 22.7

Tested on: not listed separately
Assay: Inhibition of copper-mediated aggregation of amyloid beta (1 to 42 residues) (unknown origin) at 25 uM incubated for 24 hrs by thioflavin-T fluorescence assay relative to control
Format: physicochemical
Conditions: not given

Structure (SMILES) | inhibition (INH)
COc1ccccc1CN(C)Cc1c(O)cccc1/C=C1\COc2cc(OC)c(OC)cc2C1=O | 54.9%
COc1cc2c(cc1OC)C(=O)/C(=C/c1cccc(O)c1CN1CCOCC1)CO2 | 32.4%
CCN(CC)Cc1c(O)cccc1/C=C1\COc2cc(OC)c(OC)cc2C1=O | 29.1%
COc1cc(/C=C/C(=O)CC(=O)/C=C/c2ccc(O)c(OC)c2)ccc1O [CURCUMIN] | 67.2%
CCN(Cc1ccccc1)Cc1c(O)cccc1/C=C1\COc2cc(OC)c(OC)cc2C1=O | 28%
COc1cc2c(cc1OC)C(=O)/C(=C/c1cccc(O)c1CN1CCN(C)CC1)CO2 | 36.3%
COc1cc2c(cc1OC)C(=O)/C(=C/c1ccc(CN3CCOCC3)c(O)c1)CO2 | 38.7%
CCN(CC)Cc1ccc(/C=C2\COc3cc(OC)c(OC)cc3C2=O)cc1O | 40.6%
CCN(Cc1ccc(/C=C2\COc3cc(OC)c(OC)cc3C2=O)cc1O)Cc1ccccc1OC | 65.8%
COc1cc2c(cc1OC)C(=O)/C(=C/c1ccc(CN(C)C)c(O)c1)CO2 | 42.2%

Molecular target: Butyrylcholinesterase (Rattus norvegicus) (UniProt Q9JKC1)
Assay: Inhibition of rat serum BuChE at 50 uM measured after 15 mins by Ellman's method relative to control
Conditions: not given

Chain of Butyrylcholinesterase (Rattus norvegicus) (Q9JKC1 as listed by the source): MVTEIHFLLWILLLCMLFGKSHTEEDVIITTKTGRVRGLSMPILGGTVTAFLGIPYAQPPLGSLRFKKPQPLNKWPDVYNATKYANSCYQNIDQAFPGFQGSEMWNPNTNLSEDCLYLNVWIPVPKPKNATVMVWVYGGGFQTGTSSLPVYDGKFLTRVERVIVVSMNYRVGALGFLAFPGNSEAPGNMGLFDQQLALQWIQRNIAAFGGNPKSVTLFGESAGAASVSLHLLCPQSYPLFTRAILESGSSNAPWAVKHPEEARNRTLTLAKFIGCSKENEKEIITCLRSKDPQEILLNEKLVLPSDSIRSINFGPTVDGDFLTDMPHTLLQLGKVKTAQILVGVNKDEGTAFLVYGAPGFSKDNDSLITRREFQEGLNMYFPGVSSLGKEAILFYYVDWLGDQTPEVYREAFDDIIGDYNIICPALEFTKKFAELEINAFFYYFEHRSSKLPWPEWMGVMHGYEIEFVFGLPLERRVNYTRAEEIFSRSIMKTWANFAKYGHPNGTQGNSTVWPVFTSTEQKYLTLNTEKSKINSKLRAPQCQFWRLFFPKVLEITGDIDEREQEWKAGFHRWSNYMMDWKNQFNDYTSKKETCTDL

Structure (SMILES) | inhibition
COc1ccccc1CN(C)Cc1c(O)cccc1/C=C1\COc2cc(OC)c(OC)cc2C1=O | 16%
COc1cc2c(cc1OC)C(=O)/C(=C/c1cccc(O)c1CN1CCOCC1)CO2 | 7.85%
CCN(CC)Cc1c(O)cccc1/C=C1\COc2cc(OC)c(OC)cc2C1=O | 6.31%
CCN(Cc1ccccc1)Cc1c(O)cccc1/C=C1\COc2cc(OC)c(OC)cc2C1=O | < 5%
COc1cc2c(cc1OC)C(=O)/C(=C/c1cccc(O)c1CN1CCN(C)CC1)CO2 | < 5%
COc1cc2c(cc1OC)C(=O)/C(=C/c1ccc(CN3CCOCC3)c(O)c1)CO2 | < 5%
CCN(CC)Cc1ccc(/C=C2\COc3cc(OC)c(OC)cc3C2=O)cc1O | 7.72%
CCN(Cc1ccc(/C=C2\COc3cc(OC)c(OC)cc3C2=O)cc1O)Cc1ccccc1OC | 22.7%
COc1cc2c(cc1OC)C(=O)/C(=C/c1ccc(CN(C)C)c(O)c1)CO2 | < 5%

Molecular target: T1, Amine oxidase [flavin-containing] B
Assay: Inhibition of human recombinant MAO-B using kynuramine as substrate at 20 uM measured after 30 mins by fluorescence assay relative to control
Conditions: 0.5 h

Structure (SMILES) | inhibition at 20 µM
COc1ccccc1CN(C)Cc1c(O)cccc1/C=C1\COc2cc(OC)c(OC)cc2C1=O | 43.9%
COc1cc2c(cc1OC)C(=O)/C(=C/c1cccc(O)c1CN1CCOCC1)CO2 | 18.6%
CCN(CC)Cc1c(O)cccc1/C=C1\COc2cc(OC)c(OC)cc2C1=O | 36.7%
CCN(Cc1ccccc1)Cc1c(O)cccc1/C=C1\COc2cc(OC)c(OC)cc2C1=O | 38.1%
COc1cc2c(cc1OC)C(=O)/C(=C/c1cccc(O)c1CN1CCN(C)CC1)CO2 | 29.8%

Tested on: not listed separately
Assay: Permeability of the compound at 100 ug/ml after 18 hrs by PAMPA assay
Format: ADME
Conditions: read-out: permeability

Structure (SMILES) | Papp at 18 h, 100 ug/ml
CCN(Cc1ccc(/C=C2\COc3cc(OC)c(OC)cc3C2=O)cc1O)Cc1ccccc1OC | 6.05 ×10⁻⁶ cm/s

Molecular target: T2, Amine oxidase [flavin-containing] A (Homo sapiens, UniProt P21397)
T2 sequence (P21397 whole entry): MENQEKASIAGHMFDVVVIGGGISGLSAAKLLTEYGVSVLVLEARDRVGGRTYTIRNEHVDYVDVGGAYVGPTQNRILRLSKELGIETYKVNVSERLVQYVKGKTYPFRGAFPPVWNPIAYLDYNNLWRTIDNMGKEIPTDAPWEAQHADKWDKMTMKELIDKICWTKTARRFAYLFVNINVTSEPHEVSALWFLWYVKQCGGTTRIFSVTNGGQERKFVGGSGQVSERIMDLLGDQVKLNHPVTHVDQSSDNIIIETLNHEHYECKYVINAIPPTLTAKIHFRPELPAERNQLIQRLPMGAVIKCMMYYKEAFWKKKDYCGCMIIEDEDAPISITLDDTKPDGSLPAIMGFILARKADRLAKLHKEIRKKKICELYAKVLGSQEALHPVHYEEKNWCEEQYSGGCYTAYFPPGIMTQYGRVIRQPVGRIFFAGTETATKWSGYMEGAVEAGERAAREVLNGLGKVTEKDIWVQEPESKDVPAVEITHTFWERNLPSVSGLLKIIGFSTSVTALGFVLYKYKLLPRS
Assay: Inhibition of human recombinant MAO-A using kynuramine as substrate at 20 uM measured after 30 mins by fluorescence assay relative to control
Conditions: 0.5 h

Structure (SMILES) | inhibition
COc1ccccc1CN(C)Cc1c(O)cccc1/C=C1\COc2cc(OC)c(OC)cc2C1=O | 9.8%
COc1cc2c(cc1OC)C(=O)/C(=C/c1cccc(O)c1CN1CCOCC1)CO2 | 2.1%
CCN(CC)Cc1c(O)cccc1/C=C1\COc2cc(OC)c(OC)cc2C1=O | 8.5%
CCN(Cc1ccccc1)Cc1c(O)cccc1/C=C1\COc2cc(OC)c(OC)cc2C1=O | 9.8%
COc1cc2c(cc1OC)C(=O)/C(=C/c1cccc(O)c1CN1CCN(C)CC1)CO2 | 6.8%
COc1cc2c(cc1OC)C(=O)/C(=C/c1ccc(CN3CCOCC3)c(O)c1)CO2 | 23%
CCN(CC)Cc1ccc(/C=C2\COc3cc(OC)c(OC)cc3C2=O)cc1O | 9.5%
CCN(Cc1ccc(/C=C2\COc3cc(OC)c(OC)cc3C2=O)cc1O)Cc1ccccc1OC | 14%
COc1cc2c(cc1OC)C(=O)/C(=C/c1ccc(CN(C)C)c(O)c1)CO2 | 8.2%
